Experimental data reported in PubChem BioAssay (NCI).
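All cell lines were grown in 96-well plates and treated with compound for 48 hours. TGI: concentration producing complete growth inhibition.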

Tests used:
Assay in all cases: growth of human tumour cells (NCI), 48 h
SN12C renal = test system: SN12C renal
MALME-3M melanoma = test system: MALME-3M melanoma
RPMI-8226 leukemia = test system: RPMI-8226 leukemia
M14 melanoma = test system: M14 melanoma
NCI-H226 lung = test system: NCI-H226 lung
OVCAR-4 ovarian = test system: OVCAR-4 ovarian
OVCAR-3 ovarian = test system: OVCAR-3 ovarian
PC-3 prostate = test system: PC-3 prostate
MOLT-4 leukemia = test system: MOLT-4 leukemia
HCT-116 colon = test system: HCT-116 colon
RXF 393 renal = test system: RXF 393 renal
A549 NSCLC = test system: A549 NSCLC
UACC-62 melanoma = test system: UACC-62 melanoma
IGROV1 ovarian = test system: IGROV1 ovarian
MDA-MB-231 breast = test system: MDA-MB-231 breast
SR leukemia = test system: SR leukemia
HOP-62 NSCLC = test system: HOP-62 NSCLC
BT-549 breast = test system: BT-549 breast
HL-60(TB) leukemia = test system: HL-60(TB) leukemia
NCI-H522 lung = test system: NCI-H522 lung
MCF7 breast = test system: MCF7 breast
COLO 205 colon = test system: COLO 205 colon
NCI-H460 lung = test system: NCI-H460 lung
UO-31 renal = test system: UO-31 renal
SF-268 CNS = test system: SF-268 CNS
NCI-H23 lung = test system: NCI-H23 lung
TK-10 renal = test system: TK-10 renal
NCI/ADR-RES ovarian = test system: NCI/ADR-RES ovarian
LOX IMVI melanoma = test system: LOX IMVI melanoma
HCT-15 colon = test system: HCT-15 colon
SF-539 CNS = test system: SF-539 CNS
U251 CNS = test system: U251 CNS
786-0 renal = test system: 786-0 renal
KM12 colon = test system: KM12 colon
SK-MEL-5 melanoma = test system: SK-MEL-5 melanoma
CAKI-1 renal = test system: CAKI-1 renal
OVCAR-8 ovarian = test system: OVCAR-8 ovarian
SW-620 colon = test system: SW-620 colon
SK-MEL-28 melanoma = test system: SK-MEL-28 melanoma
CCRF-CEM leukemia = test system: CCRF-CEM leukemia
SNB-75 CNS = test system: SNB-75 CNS
HOP-92 NSCLC = test system: HOP-92 NSCLC
MDA-N = test system: MDA-N
UACC-257 melanoma = test system: UACC-257 melanoma
DU-145 prostate = test system: DU-145 prostate
ACHN renal = test system: ACHN renal
SK-OV-3 ovarian = test system: SK-OV-3 ovarian
K-562 leukemia = test system: K-562 leukemia
SNB-19 CNS = test system: SNB-19 CNS
OVCAR-5 ovarian = test system: OVCAR-5 ovarian
MDA-MB-435 = test system: MDA-MB-435
EKVX NSCLC = test system: EKVX NSCLC
SK-MEL-2 melanoma = test system: SK-MEL-2 melanoma
T-47D breast = test system: T-47D breast
HCC-2998 colon = test system: HCC-2998 colon
SF-295 CNS = test system: SF-295 CNS
HT29 colon = test system: HT29 colon
HS 578T breast = test system: HS 578T breast
A498 renal = test system: A498 renal

In the case of `O=C(NNC(=O)c1ccccc1SSc1ccccc1C(=O)NNC(=O)c1ccccc1S)c1ccccc1S`, the TGI (SN12C renal) is reported as over 92.6 µM, the TGI (MALME-3M melanoma) is reported as over 81.2 µM and the TGI (RPMI-8226 leukemia) is reported as over 100 µM. It also gave a TGI (M14 melanoma) of over 100 µM, a TGI (NCI-H226 lung) of over 100 µM and a TGI (OVCAR-4 ovarian) of over 100 µM. It also gave a TGI (OVCAR-3 ovarian) of over 100 µM, a TGI (PC-3 prostate) of over 74.9 µM and a TGI (MOLT-4 leukemia) of over 87 µM. It also gave a TGI (HCT-116 colon) of over 65.1 µM, a TGI (RXF 393 renal) of over 100 µM and a TGI (A549 NSCLC) of over 100 µM. For the same compound, the TGI (UACC-62 melanoma) was 54.8 µM, the TGI (IGROV1 ovarian) was over 100 µM and the TGI (MDA-MB-231 breast) was over 74.6 µM. It also gave a TGI (SR leukemia) of over 75.3 µM, a TGI (HOP-62 NSCLC) of over 100 µM and a TGI (BT-549 breast) of 74.8 µM. For the same compound, the TGI (HL-60(TB) leukemia) was 9.49 µM, the TGI (NCI-H522 lung) was 1670 nM and the TGI (MCF7 breast) was over 100 µM. It also gave a TGI (COLO 205 colon) of over 100 µM, a TGI (NCI-H460 lung) of over 100 µM and a TGI (UO-31 renal) of over 100 µM. It also gave a TGI (SF-268 CNS) of over 52.5 µM, a TGI (NCI-H23 lung) of 62.2 µM and a TGI (TK-10 renal) of over 100 µM. For the same compound, the TGI (NCI/ADR-RES ovarian) was over 73.6 µM, the TGI (LOX IMVI melanoma) was over 100 µM and the TGI (HCT-15 colon) was 61.5 µM. It also gave a TGI (SF-539 CNS) of over 53.9 µM, a TGI (U251 CNS) of over 71.9 µM and a TGI (786-0 renal) of 98 µM. It also gave a TGI (KM12 colon) of over 100 µM, a TGI (SK-MEL-5 melanoma) of over 100 µM and a TGI (CAKI-1 renal) of over 100 µM. The TGI (OVCAR-8 ovarian) was over 100 µM, the TGI (SW-620 colon) was over 100 µM and the TGI (SK-MEL-28 melanoma) was over 91.7 µM. For the same compound, the TGI (CCRF-CEM leukemia) was 24.4 µM, the TGI (SNB-75 CNS) was over 49.8 µM and the TGI (HOP-92 NSCLC) was over 100 µM. For the same compound, the TGI (MDA-N) was over 100 µM, the TGI (UACC-257 melanoma) was over 95.4 µM and the TGI (DU-145 prostate) was over 54.7 µM. For the same compound, the TGI (ACHN renal) was over 100 µM, the TGI (SK-OV-3 ovarian) was over 100 µM and the TGI (K-562 leukemia) was over 100 µM. For the same compound, the TGI (SNB-19 CNS) was over 100 µM, the TGI (OVCAR-5 ovarian) was over 100 µM and the TGI (MDA-MB-435) was over 100 µM. For the same compound, the TGI (EKVX NSCLC) was over 71.5 µM, the TGI (SK-MEL-2 melanoma) was over 90.5 µM and the TGI (T-47D breast) was over 27.8 µM. For the same compound, the TGI (HCC-2998 colon) was over 100 µM, the TGI (SF-295 CNS) was over 100 µM and the TGI (HT29 colon) was over 95.2 µM.

`CC1=CC2C(O1)C1C(=O)C=CC(=O)C1=CC2[N+](=O)[O-]` (stereo not drawn) was tested, and the TGI (SN12C renal) was 39.6 µM, the TGI (RPMI-8226 leukemia) was over 100 µM and the TGI (M14 melanoma) was 29.4 µM. For the same compound, the TGI (NCI-H226 lung) was over 100 µM, the TGI (OVCAR-4 ovarian) was 31.6 µM and the TGI (OVCAR-3 ovarian) was 30.7 µM. For the same compound, the TGI (PC-3 prostate) was 37.9 µM, the TGI (MOLT-4 leukemia) was over 24.3 µM and the TGI (HCT-116 colon) was 31.8 µM. The TGI (RXF 393 renal) was 28.2 µM, the TGI (A549 NSCLC) was 43.5 µM and the TGI (HS 578T breast) was over 58 µM. For the same compound, the TGI (UACC-62 melanoma) was 36.2 µM, the TGI (IGROV1 ovarian) was 44.7 µM and the TGI (MDA-MB-231 breast) was 38.9 µM. For the same compound, the TGI (HOP-62 NSCLC) was 48.7 µM, the TGI (BT-549 breast) was 29.6 µM and the TGI (HL-60(TB) leukemia) was over 22.5 µM. It also gave a TGI (MCF7 breast) of 14.3 µM, a TGI (COLO 205 colon) of 21.2 µM and a TGI (NCI-H460 lung) of 36.4 µM. It also gave a TGI (UO-31 renal) of 10.4 µM, a TGI (SF-268 CNS) of 29.3 µM and a TGI (NCI-H23 lung) of 48.3 µM. The TGI (TK-10 renal) was 30.6 µM, the TGI (NCI/ADR-RES ovarian) was over 77.9 µM and the TGI (LOX IMVI melanoma) was over 52.3 µM. For the same compound, the TGI (HCT-15 colon) was 39.6 µM, the TGI (SF-539 CNS) was 96.5 µM and the TGI (U251 CNS) was 36.3 µM. It also gave a TGI (786-0 renal) of 27.6 µM, a TGI (KM12 colon) of over 55.9 µM and a TGI (SK-MEL-5 melanoma) of 38.2 µM. The TGI (CAKI-1 renal) was 9.33 µM, the TGI (OVCAR-8 ovarian) was 60.2 µM and the TGI (SW-620 colon) was over 24.3 µM. For the same compound, the TGI (SK-MEL-28 melanoma) was 68.4 µM, the TGI (CCRF-CEM leukemia) was over 23.7 µM and the TGI (SNB-75 CNS) was over 68.1 µM. The TGI (HOP-92 NSCLC) was 6.2 µM, the TGI (MDA-N) was 65.8 µM and the TGI (UACC-257 melanoma) was 33.7 µM. It also gave a TGI (DU-145 prostate) of over 55.9 µM, a TGI (ACHN renal) of 12.8 µM and a TGI (SK-OV-3 ovarian) of over 100 µM. For the same compound, the TGI (K-562 leukemia) was over 100 µM, the TGI (SNB-19 CNS) was over 72.4 µM and the TGI (OVCAR-5 ovarian) was 63.3 µM. It also gave a TGI (MDA-MB-435) of 26.4 µM, a TGI (EKVX NSCLC) of 33.8 µM and a TGI (SK-MEL-2 melanoma) of 57.2 µM. The TGI (T-47D breast) was over 29.2 µM, the TGI (A498 renal) was 40.6 µM and the TGI (HCC-2998 colon) was over 59.7 µM. It also gave a TGI (SF-295 CNS) of 34.5 µM and a TGI (HT29 colon) of 45.7 µM.

In the case of `CCc1ccc(CCN2CCCCC2)nc1`, the TGI (SN12C renal) is reported as over 100 µM, the TGI (MALME-3M melanoma) is reported as over 100 µM and the TGI (RPMI-8226 leukemia) is reported as over 100 µM. It also gave a TGI (M14 melanoma) of over 100 µM, a TGI (NCI-H226 lung) of over 100 µM and a TGI (OVCAR-4 ovarian) of over 100 µM. It also gave a TGI (OVCAR-3 ovarian) of over 100 µM, a TGI (PC-3 prostate) of over 100 µM and a TGI (MOLT-4 leukemia) of over 100 µM. For the same compound, the TGI (HCT-116 colon) was over 100 µM, the TGI (RXF 393 renal) was over 100 µM and the TGI (A549 NSCLC) was over 100 µM. For the same compound, the TGI (HS 578T breast) was over 100 µM, the TGI (UACC-62 melanoma) was over 100 µM and the TGI (IGROV1 ovarian) was over 100 µM. For the same compound, the TGI (MDA-MB-231 breast) was over 100 µM, the TGI (HOP-62 NSCLC) was over 100 µM and the TGI (BT-549 breast) was over 100 µM. The TGI (NCI-H522 lung) was over 100000 nM, the TGI (MCF7 breast) was over 100 µM and the TGI (COLO 205 colon) was over 100 µM. For the same compound, the TGI (NCI-H460 lung) was over 100 µM, the TGI (UO-31 renal) was over 100 µM and the TGI (SF-268 CNS) was over 100 µM. The TGI (NCI-H23 lung) was over 100 µM, the TGI (TK-10 renal) was over 100 µM and the TGI (NCI/ADR-RES ovarian) was over 100 µM. It also gave a TGI (LOX IMVI melanoma) of over 100 µM, a TGI (HCT-15 colon) of over 100 µM and a TGI (U251 CNS) of over 100 µM. It also gave a TGI (786-0 renal) of over 100 µM, a TGI (KM12 colon) of over 100 µM and a TGI (SK-MEL-5 melanoma) of over 100 µM. For the same compound, the TGI (CAKI-1 renal) was over 100 µM, the TGI (OVCAR-8 ovarian) was over 100 µM and the TGI (SW-620 colon) was over 100 µM. The TGI (SK-MEL-28 melanoma) was over 100 µM, the TGI (CCRF-CEM leukemia) was over 100 µM and the TGI (HOP-92 NSCLC) was over 100 µM. For the same compound, the TGI (MDA-N) was over 100 µM, the TGI (UACC-257 melanoma) was over 100 µM and the TGI (DU-145 prostate) was over 100 µM. The TGI (ACHN renal) was over 100 µM, the TGI (SK-OV-3 ovarian) was over 100 µM and the TGI (K-562 leukemia) was over 100 µM. It also gave a TGI (SNB-19 CNS) of over 100 µM, a TGI (OVCAR-5 ovarian) of over 100 µM and a TGI (MDA-MB-435) of over 100 µM. It also gave a TGI (EKVX NSCLC) of over 100 µM, a TGI (SK-MEL-2 melanoma) of over 100 µM and a TGI (T-47D breast) of over 100 µM. For the same compound, the TGI (A498 renal) was over 100 µM, the TGI (HCC-2998 colon) was over 100 µM and the TGI (SF-295 CNS) was over 100 µM. The TGI (HT29 colon) was over 100 µM.
